This note sets out measurements from US6747050B1, “Isoxazoline derivative and a process for the preparation thereof” (LG Chem Investment Ltd., priority 1999, dated 2004).

Series [1] has as its system IL-1β production in human peripheral lymphocytes. The experiment in a line: IL-1β production in LPS-stimulated human peripheral lymphocytes (intracellular Caspase-1 inhibition). The following applies: Lymphocyte, 10 ng/ml LPS, 12 hours, read-out: CIC50 (IL-1β production). The format is cell-based. The method, then: Inhibitory activity for Caspase-1 was determined by screening the effects of the compounds on the IL-1β production in the periphery lymphocytes stimulated with LPS. Briefly, 500,000 cells/ml of human peripheral lymphocytes were treated with the test compounds at various concentrations for 2 hours and then with 10 ng/ml of LPS. After incubating the cells for 12 hours, the supernatant samples from the media were analysed by immunoantibody analysis (Amersham) in which 100 ng/well of human IL-1β antibody is coated (Range: CIC50: 0.1˜10 μM).

For series [2], the system named is Con A-induced hepatitis in Balb/c mice. Description: Con A-induced acute hepatitis mice: plasma aminotransferase activity. The format is in vivo. How it is done:
Female 6-week-old Balb/c mice (Charles River Laboratory, Osaka, Japan) were kept at 22° C. and 55% relative humidity in a 12-h day/night rhythm with free access to food and water. Con A was dissolved in pyrogen-free saline to a concentration of 2.5 mg/ml and was injected via the tail vein in an amount of 20 mg/kg based on Con A. The animals were i.p. injected twice with compound 33 dissolved into a vehicle which consists of olive oil and 10% DMSO, or a vehicle alone, at 1 hr before and 4 h after Con A injection Animals were sacrificed by cervical dislocation at 24 hrs after Con A injection to obtain liver and blood samples.
Blood samples obtained at step 1 were collected at 24 h after Con A injection Plasma AST and ALT activity were measured using Autokit (Youngdong Pharmaceutical Co., Seoul, Korea) following manufacturer's instruction.

For series [3], the system named is hepatocytes in ConA-treated mouse liver. The experiment in a line: Con A-treated mouse liver: histologic examination and TUNEL detection of apoptosis. In kind it is in vivo, mice. The settings on record: 4, 20, 100 mg/kg. The method, then: The present inventors estimated the prevalence of apoptotic cells in the mouse liver to certify the apoptosis-blocking effect of the compound of the present invention specifically in hepatocytes. Mice were treated ConA in the presence or absence of various dosages of compound 33 [A and G: ConA and vehicle treatment, B and H: ConA and compound 33 4 mg/kg treatment, C and I: ConA and compound 33 20 mg/kg treatment, D and J: ConA and compound 33 100 mg/kg treatment] to prepare frozen liver sections. Also, mice were treated with PBS and vehicle (E and K), or PBS and compound 33 100 mg/kg (F and L) to prepare frozen liver sections. Freshly excised mouse liver was immediately immersed in 25% sucrose solution at 4° C. for overnight, then frozen in liquid nitrogen, and cryosectioned into 4 μm.
For histological examination, liver sections were fixed in 1% buffered paraformaldehyde and stained with hematoxilin & eosin (FIGS. 6A to F). To detect apoptotic cells in liver, frozen liver was stained using an ApopTag in situ apoptosis peroxidase detection kit (terminal deoxynucleotidyl transferase-mediated dUTP nick end labeling: TUNEL assay) (Oncor, Gaithersburg, Md.) and DAKO liquid DAB (DAKO, Carpinteria, Calif.)(FIGS. 6G to L). Staining was conducted according to manufacturer's instruction After completion of staining, the samples were observed under an optical microscope. […]

In the next series the test system is PARP cleavage. The experiment in a line: Western blotting of PARP cleavage in liver lysate of Con A-treated mice. The settings on record: various doses. The format is in vivo. The method, then:
In this experiment, the cleavage of PARP was identified by the appearance on Western blot analysis of an 85 kda-cleavage product in hepatic cell lysate obtained from mice treated with Con A and various doses of the compound of formula (I).
Freshly harvested livers treated with Con A or PBS together with various doses of compound 33 were rinsed in cold PBS and homogenized into three volumes per weight of cold PBS containing 1% Nonidet P-40, 0.1% SDS, 1 mM PMSF, and protease inhibitor cocktail tablet Complete (Boehnger Mannheim, used according to manufacturer's instruction). The homogenates were incubated on ice for 30 min. Samples were then centrifuged at 16,000×g for 30 min at 4° C. Supernatants were transferred to fresh tubes and centrifuged for additional 30 min. Harvested lysates were precleared by incubating with protein G-sepharose (Pharmacia, Uppsala, Sweden) at 4° C. for overnight, gently shaking. Supernatants were harvested by centrifugation at 1000×g for 30 sec. at 4° C. and separated on 7% SDS-polyacrylamide gel and transferred to nitrocellulose membrane. Blots were blocked for 1 hr at room temperature in PBS containing 5% skimmed milk and 0.1% Tween 20 under gentle shaking. Membranes were then incubated overnight with 1:1000 diluted monoclonal anti-PARP antibody (Pharmingen) under gentle shaking. […]
Background: A western blot detects proteins with antibodies after separation by electrophoresis.

Series [4] deals with Recombinant human caspase-1, -2, -3, -4, -6, -7, -8 and -9. Description: Inhibition of caspase activity in cell free system (chromogenic pNA substrates). In kind it is biochemical. The following applies: 100 μM compound. How it is done:
The pharmacological efficacy of the compound according to the present invention was evaluated by the following experiments. Con A was purchased from Boehringer Mannheim GmbH (Mannheim, Germany). Peptide-based substrates of caspases (Ac-YVAD-pNA for caspase-1, Ac-VDVAD for caspase-2, Ac-DEVD-pNA for caspase-3, 7, 8, and 9, Ac-LEVD-pNA for caspase-4, and Ac-VEID-pNA for caspase-6) and peptide-based caspase inhibitors (Ac-DEVD-fmk, z-VAD-CHO) were purchased from Alexis Co. (San Diego, Calif.). Ac-DEVD-CHO and z-DEVD-cmk were purchased from Bachem; Anti Fas antibody was purchased from Oncor (Cat#A8050); WI38 cell was available from ATCC; IFN-gamma was purchased from LG Pharmaceuticals (Korea). All cell culture-media and supplements were purchased from Gibco BRL (Tsuen Wan, Hong Kong) unless mentioned otherwise. […]
Caspase activity was tested by mewing proteolytic cleavage of peptide-based chromogenic substrate by each enzyme. […] Aliquots of the enzyme (2 μl containing catalytic activity of 0.2 absorbance at 405 nm/h) were mixed with 150 μl of 200 μM chromogenic substrate in the presence or absence of 100 μM compound 33 m, 96-well plates. […] The absorbance of enzymatically released pNA was measured discontinuously at 405 nm in a microplate reader for 1 hr. The caspase activity was calculated from initial velocity (meant±SE)(n=4, in which n represents the number of repeated experiment).

The next series deals with primary rat hepatocytes. The experiment in a line: Cell viability of TNFα/ActD-treated primary rat hepatocytes (crystal violet). The format is cell-based. The following applies: added at different time points. The method, then: (§1) Primary rat hepatocytes were isolated and purified from male Sprague-Dawley rats using a collagenase digestion method. The hepatocytes were purified over 30% Percoll gradient by centrifugation at 1,000×g for 10 min. at 4° C. […] The cells were plated on collagen-coated tissue culture plates at a density of 2×10^5 cells/well in 12-well plates for cell viability analysis or 5×10^6 cells/100 mm dish for enzyme assays. After 18 hrs preculture, the cells were treated with 2,000 units/ml TNFα and 0.2 μg/ml Actinomycin (ActD). Caspase activity and cell viability was determined by colorimetry using a caspase substrate Ac-DEVD-pNA and crystal violet staining method at 8 hrs and 12 hrs, respectively.

The test system of series [5] is caspase-3-like activity (Ac-DEVD-pNA). Description: Caspase-3-like activity in TNFα/ActD-treated primary rat hepatocytes. The format is cell-based. The following applies: 100 μM, 8 hrs. How it is done:
as §1

As for `CC(C)[C@H](NC(=O)CCc1ccccc1)C1=NOC(Cc2ccccc2)(C(=O)N[C@@H](CC(=O)O)C(=O)COC(=O)c2c(Cl)cccc2Cl)C1` (mixture of isomers) [Compound 32], in series [1], the IC50 is 0.1 to 10 µM.

As for `CC(C)[C@H](NC(=O)c1cccc2ccccc12)C1=NOC(Cc2ccccc2)(C(=O)N[C@@H](CC(=O)O)C(=O)COC(=O)c2c(Cl)cccc2Cl)C1` (stereo partly drawn) [Compound 33, (3S)-3-{3-[2-Methyl-(1S)-1-(1-naphthalenecarbonylamino)-propyl]-5-phenylmethyl-4,5-dihydro-isoxazole-5-carbonylamino}-4-keto-5-(2,6-dichlorobenzoyloxy)-pentanoic Acid], the “AST and ALT difference to Con A/vehicle group” value in series [2] (4 mg/kg, second experiment (AST: p=0.2972, ALT: p=0.1378)) is “did not reached at statistically significant level”. In addition, the “AST and ALT activities compared with ConA/vehicle group” value in series [2] (20 mg/kg, second experiment (AST: p=0.0174, ALT: p=0.0011)) is “definitely reduced”. For the same compound, in series [2] (first experiment, not statistically significant (p=0.1033)), the “AST activity by the compound itself (no Con A)” value is on record as “slightly increased”. For the same compound, the “serum AST and ALT activity elevated by ConA (FIG. 4A, B)” value in series [2] (i.p. twice, 1 hr before and 4 h after Con A, blood at 24 h) was “suppressed the elevated enzyme activities in a dose-dependent manner”. For the same compound, in series [3], the “apoptotic lesions in liver” value is recorded as “reduced dose-dependently” and the “cellular histology of liver” value was “gradually recovered”. Besides, the “PARP cleavage (85 kDa-cleavage product) caused by Con A (FIG. 7)” value with PARP cleavage was “gradually reduced”. For the same compound, in series [4], the “inhibition of recombinant human caspase activity (FIG. 1)” value is “almost completely inhibited all tested caspase activity, only except for caspase 2”.

As for Z-VAD-fmk, in the series on primary rat hepatocytes, the “cell viability with delayed addition, comparison with compound 33MP-Na” value is reported as “No different results”. Moreover, the “caspase-3-like activity increased by TNFα/ActD (FIG. 15A)” value in series [5] was “not different”.
